Laboratory results from ChEMBL document CHEMBL2424537, “Design, synthesis, biological evaluation and docking study of 5-oxo-4,5-dihydropyrano[3,2-c]chromene derivatives as acetylcholinesterase and butyrylcholinesterase inhibitors” (Eur J Med Chem, 2013).

Key:
Cholinesterase = Cholinesterase (Equus caballus, UniProt P81908); assay: Inhibition of equine serum BChE using butyrylthiocholine iodide as substrate after 2 mins by Ellman's method
Acetylcholinesterase = Acetylcholinesterase (Electrophorus electricus, UniProt O42275)
Description: Inhibition of electric eel AChE using acetylthiocholine iodide as substrate after 2 mins by Ellman's method

[1] = Selectivity ratio of IC50 for equine serum BChE to IC50 for electric eel AChE

Chain of Acetylcholinesterase (O42275 whole entry): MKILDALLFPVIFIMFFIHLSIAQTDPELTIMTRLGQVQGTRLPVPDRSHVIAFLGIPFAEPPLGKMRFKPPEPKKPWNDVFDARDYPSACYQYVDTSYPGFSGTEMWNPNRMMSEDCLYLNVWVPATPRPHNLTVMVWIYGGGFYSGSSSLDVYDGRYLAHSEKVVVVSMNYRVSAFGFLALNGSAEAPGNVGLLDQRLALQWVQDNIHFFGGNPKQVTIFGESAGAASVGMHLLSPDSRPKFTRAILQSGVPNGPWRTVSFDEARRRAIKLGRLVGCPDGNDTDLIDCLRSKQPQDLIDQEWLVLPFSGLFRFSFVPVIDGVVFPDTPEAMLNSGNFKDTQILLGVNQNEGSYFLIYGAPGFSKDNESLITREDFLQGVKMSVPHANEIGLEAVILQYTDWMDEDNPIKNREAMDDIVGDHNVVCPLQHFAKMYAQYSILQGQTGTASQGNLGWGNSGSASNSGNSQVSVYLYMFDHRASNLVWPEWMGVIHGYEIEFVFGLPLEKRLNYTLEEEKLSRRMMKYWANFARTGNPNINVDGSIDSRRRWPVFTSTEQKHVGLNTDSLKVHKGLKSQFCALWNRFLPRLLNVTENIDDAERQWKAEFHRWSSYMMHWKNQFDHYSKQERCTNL
Chain of Cholinesterase (P81908 whole entry): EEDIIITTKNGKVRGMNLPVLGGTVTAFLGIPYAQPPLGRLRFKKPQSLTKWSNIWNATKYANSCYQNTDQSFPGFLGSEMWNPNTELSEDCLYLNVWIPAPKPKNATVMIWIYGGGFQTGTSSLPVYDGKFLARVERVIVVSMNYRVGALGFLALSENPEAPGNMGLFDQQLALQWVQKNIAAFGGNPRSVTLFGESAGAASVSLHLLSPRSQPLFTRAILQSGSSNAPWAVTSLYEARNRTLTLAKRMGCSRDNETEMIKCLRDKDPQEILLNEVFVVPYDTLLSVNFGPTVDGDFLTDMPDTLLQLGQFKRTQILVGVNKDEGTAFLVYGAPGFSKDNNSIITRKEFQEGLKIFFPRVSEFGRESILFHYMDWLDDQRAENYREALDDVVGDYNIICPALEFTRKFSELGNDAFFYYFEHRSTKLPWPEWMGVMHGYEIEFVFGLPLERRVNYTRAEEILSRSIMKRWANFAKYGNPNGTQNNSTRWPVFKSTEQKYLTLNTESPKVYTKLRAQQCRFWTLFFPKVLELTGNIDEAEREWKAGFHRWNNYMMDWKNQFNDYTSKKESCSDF

Row | Structure (SMILES) | IC50 (Cholinesterase) [µM] | IC50 (Acetylcholinesterase) [nM] | Ratio IC50 [1]
1 | N#CC1=C(N)Oc2c(c(=O)oc3ccccc23)C1c1ccc[n+](Cc2cccc(Cl)c2)c1 (stereo not given) | 38.4 | 7400 | 5.2
2 | N#CC1=C(N)Oc2c(c(=O)oc3ccccc23)C1c1ccc[n+](Cc2ccccc2Cl)c1 (stereo not given) | 11.2 | 1000 | 11.2
3 | Cc1ccccc1C[n+]1ccc(C2C(C#N)=C(N)Oc3c2c(=O)oc2ccccc32)cc1 (stereo not given) | 17.8 | 3700 | 4.8
4 | N#CC1=C(N)Oc2c(c(=O)oc3ccccc23)C1c1cc[n+](Cc2ccc(Cl)c(Cl)c2)cc1 (stereo not given) | 1.27 | 44 | 28.9
5 | N#CC1=C(N)Oc2c(c(=O)oc3ccccc23)C1c1ccc[n+](Cc2cccc(F)c2)c1 (stereo not given) | > 50 | 2000 | > 25
6 | N#CC1=C(N)Oc2c(c(=O)oc3ccccc23)C1c1cc[n+](Cc2ccccc2Cl)cc1 (stereo not given) | 4.8 | 1500 | 3.2
7 | N#CC1=C(N)Oc2c(c(=O)oc3ccccc23)C1c1cc[n+](Cc2ccc(F)cc2)cc1 (stereo not given) | 1.84 | 38 | 48.4
8 | N#CC1=C(N)Oc2c(c(=O)oc3ccccc23)C1c1cc[n+](Cc2ccc(Cl)cc2Cl)cc1 (stereo not given) | 0.566 | 831 | 0.68
9 | Cc1cccc(C[n+]2cccc(C3C(C#N)=C(N)Oc4c3c(=O)oc3ccccc43)c2)c1 (stereo not given) | 14.3 | 790 | 18.1
10 | N#CC1=C(N)Oc2c(c(=O)oc3ccccc23)C1c1ccc[n+](Cc2ccccc2F)c1 (stereo not given) | 41 | 1800 | 22.8
11 | N#CC1=C(N)Oc2c(c(=O)oc3ccccc23)C1c1cc[n+](Cc2ccccc2F)cc1 (stereo not given) | 36 | 2900 | 12.4
12 | Cc1cccc(C[n+]2ccc(C3C(C#N)=C(N)Oc4c3c(=O)oc3ccccc43)cc2)c1 (stereo not given) | 5.5 | 1900 | 2.6
13 | N#CC1=C(N)Oc2c(c(=O)oc3ccccc23)C1c1cc[n+](Cc2cccc(F)c2)cc1 (stereo not given) | > 50 | 2800 | > 17.8
14 | N#CC1=C(N)Oc2c(c(=O)oc3ccccc23)C1c1cc[n+](Cc2cccc(Cl)c2)cc1 (stereo not given) | 21.8 | 480 | 45.4
15 | N#CC1=C(N)Oc2c(c(=O)oc3ccccc23)C1c1ccc[n+](Cc2ccc(F)cc2)c1 (stereo not given) | 2.17 | 2170 | 1
